Measured values taken from patent US7919468B2, “Compounds useful as modulators of the proteasome activity” (Centre National de la Recherche Scientifique (C.N.R.S.), priority 2005, dated 2011).
Peptide text beside a SMILES is read from it. * marks the point of attachment. Boc = CC(C)(C)OC(=O)*; NHBn = c1ccc(CN*)cc1; Bn = c1ccc(C*)cc1

Legend:
Type in all cases: biochemical
[1] = target: T1, rabbit 20S proteasome, chymotrypsin-like (CT-L) activity (Oryctolagus cuniculus, UniProt G1T4Q9); test: Rabbit 20S proteasome fluorescent assay, chymotrypsin-like activity (Suc-LLVY-amc); conditions: pH 7.5, 30° C.; for inhibition at 100 µM: 100 μM compound
T1 construct: other: 100 μM compound, pH 7.5, 30° C; other: pH 7.5, 30° C; CT-L Ki
T1 sequence (G1T4Q9 1-263): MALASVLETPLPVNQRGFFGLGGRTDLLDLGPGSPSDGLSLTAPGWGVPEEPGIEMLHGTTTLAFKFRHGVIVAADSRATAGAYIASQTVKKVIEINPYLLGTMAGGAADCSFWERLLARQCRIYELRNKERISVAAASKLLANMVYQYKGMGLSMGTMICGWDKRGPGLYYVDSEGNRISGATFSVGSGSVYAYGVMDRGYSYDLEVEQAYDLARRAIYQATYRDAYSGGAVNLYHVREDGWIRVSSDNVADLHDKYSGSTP
Description: (§1) 20S proteasome from rabbit reticulocyte was from commercial source (Alexis Biochemicals)
(§2) Semi-automatic fluorescent assays using Suc-LLVY-amc (SEQ ID NO: 2) for chymotrypsin-like activity, Z-LLE-SNA for post-acid activity and Boc-LLR-amc for trypsin-like activity of proteasome were performed at pH 7.5 and 30° C. using BMG Fluostar microplate reader (Suc=succinyl; amc=7-amino-4-methylcoumarin; Z=benzyloxycarbonyl; NA=2-naphtylamine; Boc=tert-butoxycarbonyl). The buffers were: 20 mM Tris, 1 mM DTT, 10% glycerol, 3% (v/v) DMSO (ChT-L and PA activities); 20 mM Tris, 1 mM DTT, 10% glycerol, 3% (v/v) DMSO. Studied compounds were dissolved in DMSO prior dissolution in the buffer. Proteasome was incubated for 15 min at 30° C. in the presence of the studied compound (0.1-100 μM). A control assay in the absence of tested compounds contained DMSO at the same concentration (3%, v/v). The fluorogenic proteasome substrate was then added and the hydrolysis of the appropriate fluorescent substrate was monitored for 1 h (λexc=360, λem=465 nm for amc substrates and λexc=340, λem=405 nm for the βNA substrate). Initial rates determined in control experiments were considered to be 100% of the peptidasic activity; initial rates that were above 100% in the presence of a test compound were considered to be activations, while initial rates below 100% were considered to be inhibitions. For weak inhibitors, the percentage of inhibition at a reference concentration (100 μM) is reported. The results, expressed in % inhibition (or activation factor), were obtained by calculating the average of at least two independent experiments, the variability was less than 10%. The inhibitory activity of more efficient compounds are expressed as IC50 calculated by fitting the experimental data to the equation 1: % Inhibition=100 [I]0/(IC50+[I]0)=100 (v0−vi/v0), or equation 2: % Inhibition=100 [I]0^nH/(IC50^nH+[I]0^nH), nH is the Hill number. v0 and vi are the initial rates in the absence and in the presence of inhibitor. A Dixon plot has been used to determine the inhibition constant Ki for competitive inhibition by compound A215. The reversible character of inhibition or activation was determined by measuring the activity of treated enzyme after the inhibitor molecule has been withdrawn from the reaction medium.
(§3) Inhibition of Rabbit 20 S Proteasome (pH=7.5, 30° C.)
(§4) Activation of Rabbit 20 S Proteasome (pH=7.5, 30° C., [Compound]=100 μM)

[2] = tested on: rabbit 20S proteasome, trypsin-like (T-L) activity; test: Rabbit 20S proteasome fluorescent assay, trypsin-like activity (Boc-LLR-amc); conditions: [Compound]=100 μM, pH 7.5, 30° C.
Description: as §1, §2, §3, §4

[3] = target: T2, rabbit 20S proteasome, post-acid (PA) activity (Oryctolagus cuniculus, UniProt A0A5F9DQW2); test: Rabbit 20S proteasome fluorescent assay, post-acid activity (Z-LLE-βNA); conditions: pH 7.5, 30° C.; for PA % inhibition (at 100 μM): 100 μM compound
T2 construct: other: 100 μM compound, pH 7.5, 30° C; other: pH 7.5, 30° C
Description: as §1, §2, §3, §4

T2 sequence (A0A5F9DQW2 1-212): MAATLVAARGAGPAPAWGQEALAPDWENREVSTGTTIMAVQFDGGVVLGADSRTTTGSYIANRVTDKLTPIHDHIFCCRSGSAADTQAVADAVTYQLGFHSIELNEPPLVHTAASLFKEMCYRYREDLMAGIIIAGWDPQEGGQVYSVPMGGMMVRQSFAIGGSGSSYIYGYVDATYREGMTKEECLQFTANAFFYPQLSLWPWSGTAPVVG

Row | SMILES | inhibition at 100 µM [1] [%] | T-L Activation factor [2] | PA % inhibition (at 100 μM) [3] [%] | IC50 [1] [µM] | IC50 [3] [µM]
1 | COC(=O)[C@H](Cc1c[nH]c2ccccc12)NC(=O)[C@H](C)NC(=O)[C@H](Cc1ccc(OCc2ccccc2)cc1)NC(=O)OC(C)(C)C [NR36, N-Boc-Tyr(Bn)-Ala-Trp-OCH3] (Boc-Tyr(Bn)-Ala-Trp-OMe) | 34 | 9.8 | 39 |  | 
2 | CC(C)C[C@H](NC(=O)[C@H](Cc1ccc(OCc2ccccc2)cc1)NC(=O)OC(C)(C)C)C(=O)N[C@@H](Cc1c[nH]c2ccccc12)C(=O)Nc1ccc(O)cc1 [A418P, N-Boc-Tyr(Bn)-Leu-Trp-NH(4-OH)Ph] |  | 1.6 | 32 |  | 
3 | CC(C)(C)OC(=O)N[C@@H](Cc1ccc(OCc2ccccc2)cc1)C(=O)NCC(=O)N[C@@H](CC1C(=O)Nc2ccccc21)C(=O)NCc1ccccc1 (some centres unmarked) [NR15, Boc-Tyr(Bn)-Gly-Trp[O]—NHCH2Ph] |  | 12.3 | 87 | 2.2 | 
4 | COC(=O)[C@H](Cc1c[nH]c2c(Br)cccc12)NC(=O)[C@H](CC(C)C)NC(=O)[C@H](Cc1ccc(OC)c(I)c1)NC(=O)OC(C)(C)C [A363, N-Boc-3-iodo-Tyr(Me)-Leu-7-bromo-Trp-OMe] |  | 1.9 | 20 |  | 
5 | CC(C)(C)OC(=O)N[C@@H](Cc1ccc(OCc2ccccc2)cc1)C(=O)N[C@@H](CCCN(C(=N)NC(=O)OCc1ccccc1)C(=O)OCc1ccccc1)C(=O)N[C@@H](CC1C(=O)Nc2ccccc21)C(=O)NCc1ccccc1 (some centres unmarked) [NR16, Boc-Tyr(Bn)-Arg(Z)-2-Trp[O]—NHCH2Ph] | 12 | 8.2 |  |  | 
6 | C[C@H](NC(=O)[C@H](Cc1ccc(OCc2ccccc2)cc1)NC(=O)OC(C)(C)C)C(=O)N[C@@H](Cc1c[nH]c2ccccc12)C(=O)NCc1ccccc1 [SP304R, N-Boc-Tyr(Bn)-Ala-Trp-NHCCH2Ph] (Boc-Tyr(Bn)-Ala-Trp-NHBn) |  | 1.7 | 45 |  | 
7 | COC(=O)[C@H](Cc1c[nH]c2c(Br)cccc12)NC(=O)[C@H](C)NC(=O)[C@H](Cc1ccc(OC)c(I)c1)NC(=O)OC(C)(C)C [A385, N-Boc-3-iodo-Tyr(Me)-Ala-7-bromo-Trp-OMe] | 28 |  | 38 |  | 
8 | C[C@H](NC(=O)[C@H](Cc1ccc(OCc2ccccc2)cc1)NC(=O)OC(C)(C)C)C(=O)N[C@@H](CC1C(=O)Nc2ccccc21)C(=O)Nc1ccccc1 (some centres unmarked) [CV13, Boc-Tyr(Bn)-Ala-Trp[O]—NHPh] | 32 |  |  |  | 3.9
9 | CC(C)(C)OC(=O)N[C@@H](Cc1ccc(OCc2ccccc2)cc1)C(=O)N[C@@H](CC(N)=O)C(=O)N[C@@H](Cc1c[nH]c2ccccc12)C(=O)NCc1ccccc1 [A416, N-Boc-Tyr(Bn)-Asn-Trp-NHCH2Ph] (Boc-Tyr(Bn)-Asn-Trp-NHBn) | 28 | 2.2 | 35 |  | 
10 | CC(C)(C)OC(=O)N[C@@H](Cc1ccc(OCc2ccccc2)cc1)C(=O)N[C@@H](CC(N)=O)C(=O)N[C@@H](Cc1c[nH]c2ccccc12)C(=O)Nc1ccc(O)cc1 [SP318C, N-Boc-Tyr(Bn)-Asn-Trp-NH(4-OH)Ph] | 15 | 1.2 | 66 |  | 
11 | COC(=O)[C@H](Cc1c[nH]c2ccccc12)NC(=O)[C@H](C)NC(=O)[C@H](Cc1ccc(O)cc1)NC(=O)OC(C)(C)C [NR40, N-Boc-Tyr-Ala-Trp-OCH3] (Boc-Tyr-Ala-Trp-OMe) |  | 6 |  | 40 | 35
12 | COC(=O)[C@H](Cc1c[nH]c2c(Br)cccc12)NC(=O)[C@H](C)NC(=O)[C@H](Cc1ccc(OCc2ccccc2)c(I)c1)NC(=O)OC(C)(C)C [A248, N-Boc-3-iodo-Tyr(Bn)-Ala-7-bromo-Trp-OMe] |  |  | 32 |  | 
13 | CC(C)(C)OC(=O)N[C@@H](Cc1ccc(OCc2ccccc2)cc1)C(=O)NCC(=O)N[C@@H](Cc1c[nH]c2ccccc12)C(=O)O [NR35, N-Boc-Tyr(Bn)-Gly-Trp-OH] (Boc-Tyr(Bn)-Gly-Trp-OH) |  | 1.8 |  |  | 
14 | COC(=O)[C@H](Cc1c[nH]c2c(Br)cccc12)NC(=O)[C@H](CC(C)C)NC(=O)[C@H](Cc1ccc(OCc2ccccc2)c(I)c1)NC(=O)OC(C)(C)C [A268, N-Boc-3-iodo-Tyr(Bn)-Leu-7-bromo-Trp-OMe] |  | 2 |  |  | 
15 | C[C@H](NC(=O)[C@H](Cc1ccc(OCc2ccccc2)cc1)NC(=O)OC(C)(C)C)C(=O)N[C@@H](Cc1c[nH]c2ccccc12)C(=O)Nc1ccc(O)cc1 [SP313P, N-Boc-Tyr(Bn)-Ala-Trp-NH(4-OH)Ph] | 26 |  |  |  | 4
16 | CC(C)C[C@H](NC(=O)[C@H](Cc1ccc(OCc2ccccc2)cc1)NC(=O)OC(C)(C)C)C(=O)N[C@@H](Cc1c[nH]c2ccccc12)C(=O)NCCCCNC(=O)OC(C)(C)C [SP296P, N-Boc-Tyr(Bn)-Leu-Trp-NH(CH2)4NHBoc] | 22 | 2.3 | 59 |  | 
17 | COC(=O)[C@H](Cc1c[nH]c2c(Br)cccc12)NC(=O)[C@H](CC(N)=O)NC(=O)[C@H](Cc1ccc(OCc2ccccc2)c(I)c1)NC(=O)OC(C)(C)C [SP274, N-Boc-3-iodo-Tyr(Bn)-Asn-7-bromo-Trp-OMe] | 62 |  | 45 |  | 
18 | CCOC(=O)[C@H](Cc1c[nH]c2c(-c3cc(C[C@H](NC(=O)OC(C)(C)C)C(=O)N[C@@H](CC(C)C)C(=O)OC)ccc3OCc3ccccc3)cccc12)NC(=O)OCc1ccccc1 [SP221] |  | 1.4 |  |  | 
19 | CC(C)C[C@H](NC(=O)[C@H](Cc1ccc(OCc2ccccc2)cc1)NC(=O)OC(C)(C)C)C(=O)N[C@@H](CC1C(=O)Nc2ccccc21)C(=O)Nc1ccccc1 (some centres unmarked) [JV602, Boc-Tyr(Bn)-Leu-Trp[O]—NHPh] | 22 | 1.3 | 26 |  | 
20 | COC(=O)[C@H](CC1C(=O)Nc2ccccc21)NC(=O)CNC(=O)[C@H](Cc1ccc(OCc2ccccc2)cc1)NC(=O)OC(C)(C)C (some centres unmarked) [NR38, Boc-Tyr(Bn)-Gly-Trp[O]—OCH3] |  | 9.8 | 81 | 13.5 | 
21 | COC(=O)[C@H](Cc1c[nH]c2c(Br)cccc12)NC(=O)CCNC(=O)C(Cc1ccc(OC)c(I)c1)NC(=O)OC(C)(C)C (some centres unmarked) [A493, N-Boc-3-iodo-Tyr(Me)-βAla-7-bromo-Trp-OMe] | 29 | 8.2 | 40 |  | 
22 | CCOC(=O)[C@H](Cc1c[nH]c2c(Br)cccc12)NC(=O)[C@H](CC(C)C)NC(=O)[C@H](Cc1ccc(OC)c(I)c1)NC(=O)OC(C)(C)C [A340, N-Boc-3-iodo-Tyr(Me)-Leu-7-bromo-Trp-OEt] |  |  | 17 |  | 
23 | CC(C)(C)OC(=O)N[C@@H](Cc1ccc(OCc2ccccc2)cc1)C(=O)N[C@@H](CCCN(C(=N)NC(=O)OCc1ccccc1)C(=O)OCc1ccccc1)C(=O)N[C@@H](CC1C(=O)Nc2ccccc21)C(=O)Nc1ccccc1 (some centres unmarked) [CV11, Boc-Tyr(Bn)-Arg(Z)-2-Trp[O]—NHPh] |  | 1.7 |  |  | 
24 | CC(C)(C)OC(=O)NCCC[C@H](NC(=O)[C@H](Cc1ccc(OCc2ccccc2)cc1)NC(=O)OC(C)(C)C)C(=O)N[C@@H](CC1C(=O)Nc2ccccc21)C(=O)Nc1ccccc1 (some centres unmarked) [CV12, Boc-Tyr(Bn)-Lys(Boc)-Trp[O]—NHPh] |  | 1.5 |  |  | 10.4
25 | CNC(=O)[C@H](Cc1c[nH]c2c(Br)cccc12)NC(=O)[C@H](C)NC(=O)[C@H](Cc1ccc(OCc2ccccc2)c(I)c1)NC(=O)OC(C)(C)C [A254, N-Boc-3-iodo-Tyr(Bn)-Ala-7-bromo-Trp-NHMe] | 38 |  | 60 |  | 
